Measurements from patent US4629782A, “Crystalline form of N-acetylmuramyl-L-α-aminobutyryl-D-isoglutamine” (Syntex (U.S.A.) Inc., priority 1984, dated 1986).

Key:
[1] = Hygroscopicity, visual comparison at 76% relative humidity and ambient temperature; type: physicochemical; settings: 76% relative humidity, ambient temperature, visual observation
Excerpt: The crystalline monohydrate of this invention is less hygroscopic than amorphous ABU-MDP. This is readily observed by visually comparing samples of each in separate containers at 76% relative humidity and ambient temperature.

[2] = Thermogravimetric analysis (TGA) after vacuum drying and exposure to air; type: physicochemical; settings: dried under house vacuum 12 hours, exposed to air about 3 hours; 1.5% initial weight loss attributed to surface water
Protocol: The mole ratio of water to ABU-MDP in the crystalline monohydrate of formula (1) was determined by thermogravimetric analysis (TGA). A small amount of the monohydrate prepared in accordance with Example II was dried under "house" vacuum for 12 hours and then exposed to air for about 3 hours. […] This analysis was conducted with a Perkin Elmer TGS-2 thermogravimetric balance. The heating rate was 2.5° C. per minute from 40° C. to 160° C. A dry nitrogen purge was maintained throughout each run.

Row | Substance | Hygroscopicity: physical state on exposure to humidity [1] | Hygroscopicity indicated by TGA [2]
1 | N-acetylmuramyl-L-α-aminobutyryl-D-isoglutamine [Amorphous ABU-MDP, reference compound] | turns into a syrupy solution within about an hour | –
2 | acetylmuramyl-L-α-aminobutyryl-D-isoglutamine monohydrate [Crystalline monohydrate] | remains a solid | slightly hygroscopic
